Results published in the NIST ThermoML archive (doi:10.1021/je700260f).
Numbers after ± are expanded uncertainties.

Details: 283.14 K, Liquid, Vibrating tube method

FC(C(F)(F)F)C(F)(F)F [1,1,1,2,3,3,3-heptafluoropropane]
Details	mass density [kg/m3]
13521 kPa	1512.6 ± 1.6
13550 kPa	1512.5 ± 1.6
13594 kPa	1512.8 ± 1.6
13629 kPa	1513 ± 1.6
13672 kPa	1513.2 ± 1.6
13707 kPa	1513.2 ± 1.6
13754 kPa	1513.5 ± 1.6
13783 kPa	1513.6 ± 1.6
13814 kPa	1513.7 ± 1.6
13848 kPa	1513.7 ± 1.6
13878 kPa	1513.9 ± 1.6
13913 kPa	1514.1 ± 1.6
13943 kPa	1514.1 ± 1.6
13983 kPa	1514.3 ± 1.6
14013 kPa	1514.5 ± 1.6
14057 kPa	1514.7 ± 1.6
14086 kPa	1514.9 ± 1.6
14121 kPa	1514.9 ± 1.6
14157 kPa	1515.1 ± 1.6
14187 kPa	1515.1 ± 1.6
14217 kPa	1515.2 ± 1.6
14261 kPa	1515.5 ± 1.6
14304 kPa	1515.6 ± 1.6
14343 kPa	1515.8 ± 1.6
14377 kPa	1515.8 ± 1.6
14406 kPa	1516.1 ± 1.6
14435 kPa	1516.1 ± 1.6
14464 kPa	1516.2 ± 1.6
14504 kPa	1516.4 ± 1.6
14534 kPa	1516.3 ± 1.6
14580 kPa	1516.6 ± 1.6
15750 kPa	1521.1 ± 1.6
15778 kPa	1521.3 ± 1.6
15811 kPa	1521.3 ± 1.6
15838 kPa	1521.3 ± 1.6
15867 kPa	1521.5 ± 1.6
15896 kPa	1521.5 ± 1.6
15929 kPa	1521.8 ± 1.6
15966 kPa	1521.9 ± 1.6
15994 kPa	1521.8 ± 1.6
16031 kPa	1522 ± 1.6
16054 kPa	1522.2 ± 1.6
16198 kPa	1522.7 ± 1.6
16235 kPa	1522.8 ± 1.6
16269 kPa	1522.9 ± 1.6
16306 kPa	1523.1 ± 1.6
16339 kPa	1523.3 ± 1.6
16372 kPa	1523.4 ± 1.6
16405 kPa	1523.5 ± 1.6
16433 kPa	1523.7 ± 1.6
16471 kPa	1523.7 ± 1.6
16499 kPa	1523.9 ± 1.6
16541 kPa	1523.9 ± 1.6
16574 kPa	1524.1 ± 1.6
16649 kPa	1524.3 ± 1.6
16739 kPa	1524.6 ± 1.6
16776 kPa	1524.8 ± 1.6
16803 kPa	1525 ± 1.6
16836 kPa	1525 ± 1.6
16864 kPa	1525.1 ± 1.6
16892 kPa	1525.2 ± 1.6
16935 kPa	1525.3 ± 1.6
16967 kPa	1525.6 ± 1.6
17015 kPa	1525.7 ± 1.6
17055 kPa	1525.8 ± 1.6
17079 kPa	1525.9 ± 1.6
17116 kPa	1526 ± 1.6
17145 kPa	1526.1 ± 1.6
17173 kPa	1526.2 ± 1.6
17206 kPa	1526.4 ± 1.6
17248 kPa	1526.5 ± 1.6
17271 kPa	1526.5 ± 1.6
17304 kPa	1526.7 ± 1.6
17332 kPa	1526.8 ± 1.6
17370 kPa	1527 ± 1.6
17413 kPa	1527.2 ± 1.6
17622 kPa	1527.9 ± 1.6
17656 kPa	1528.1 ± 1.6
17691 kPa	1528.1 ± 1.6
17729 kPa	1528.3 ± 1.6
17758 kPa	1528.4 ± 1.6
17786 kPa	1528.5 ± 1.6
17820 kPa	1528.6 ± 1.6
17850 kPa	1528.6 ± 1.6
17893 kPa	1528.8 ± 1.6
17922 kPa	1529 ± 1.6
17961 kPa	1529 ± 1.6
18006 kPa	1529.3 ± 1.6
18060 kPa	1529.4 ± 1.6
18090 kPa	1529.5 ± 1.6
18129 kPa	1529.6 ± 1.6
18164 kPa	1529.7 ± 1.6
18194 kPa	1529.9 ± 1.6
18233 kPa	1530 ± 1.6
18274 kPa	1530 ± 1.6
18312 kPa	1530.2 ± 1.6
18389 kPa	1530.5 ± 1.6
18616 kPa	1531.3 ± 1.6
18645 kPa	1531.6 ± 1.6
18675 kPa	1531.4 ± 1.6
18719 kPa	1531.7 ± 1.6
18754 kPa	1531.8 ± 1.6
18793 kPa	1531.9 ± 1.6
18821 kPa	1532 ± 1.6
18862 kPa	1532.3 ± 1.6
18911 kPa	1532.4 ± 1.6
18933 kPa	1532.4 ± 1.6
18973 kPa	1532.7 ± 1.6
19007 kPa	1532.6 ± 1.6
19042 kPa	1532.7 ± 1.6
19087 kPa	1533 ± 1.6
19118 kPa	1533.1 ± 1.6
19150 kPa	1533.1 ± 1.6
19177 kPa	1533.3 ± 1.6
19213 kPa	1533.4 ± 1.6
19240 kPa	1533.5 ± 1.6
19277 kPa	1533.6 ± 1.6
19309 kPa	1533.7 ± 1.6
19337 kPa	1533.9 ± 1.6
19373 kPa	1534 ± 1.6
19406 kPa	1534.1 ± 1.6
20075 kPa	1536.4 ± 1.6
20104 kPa	1536.4 ± 1.6
20142 kPa	1536.6 ± 1.6
20175 kPa	1536.7 ± 1.6
20372 kPa	1537.3 ± 1.6
20424 kPa	1537.4 ± 1.6
20453 kPa	1537.6 ± 1.6
22509 kPa	1544.4 ± 1.7
22609 kPa	1544.6 ± 1.7
22639 kPa	1544.7 ± 1.7
22675 kPa	1545 ± 1.7
22904 kPa	1545.6 ± 1.7
22939 kPa	1545.7 ± 1.7
23014 kPa	1546 ± 1.7
23096 kPa	1546.2 ± 1.7
23454 kPa	1547.3 ± 1.7
23496 kPa	1547.4 ± 1.7
23531 kPa	1547.5 ± 1.7
23562 kPa	1547.6 ± 1.7
23603 kPa	1547.8 ± 1.7
23638 kPa	1548 ± 1.7
23709 kPa	1548.1 ± 1.7
23828 kPa	1548.6 ± 1.7
23869 kPa	1548.8 ± 1.7
23896 kPa	1548.7 ± 1.7
23944 kPa	1548.9 ± 1.7
23985 kPa	1548.9 ± 1.7
24017 kPa	1549.2 ± 1.7
24350 kPa	1550.1 ± 1.7
24387 kPa	1550.2 ± 1.7
24422 kPa	1550.4 ± 1.7
24459 kPa	1550.4 ± 1.7
24490 kPa	1550.5 ± 1.7
24532 kPa	1550.8 ± 1.7
24572 kPa	1550.8 ± 1.7
25104 kPa	1552.3 ± 1.7
25136 kPa	1552.5 ± 1.7
25173 kPa	1552.8 ± 1.7
25209 kPa	1552.7 ± 1.7
25250 kPa	1553 ± 1.7
25282 kPa	1552.9 ± 1.7
25327 kPa	1553.2 ± 1.7
25365 kPa	1553.4 ± 1.7
25402 kPa	1553.3 ± 1.7
25434 kPa	1553.5 ± 1.7
25476 kPa	1553.6 ± 1.7
25550 kPa	1553.9 ± 1.7
25673 kPa	1554.3 ± 1.7
25766 kPa	1554.5 ± 1.7
25800 kPa	1554.6 ± 1.7
25832 kPa	1554.7 ± 1.7
25913 kPa	1554.9 ± 1.7
26847 kPa	1557.6 ± 1.7
27304 kPa	1559.1 ± 1.7
27346 kPa	1559.3 ± 1.7
27389 kPa	1559.3 ± 1.7
27418 kPa	1559.4 ± 1.7
27466 kPa	1559.4 ± 1.7
27495 kPa	1559.6 ± 1.7
27777 kPa	1560.4 ± 1.7
28197 kPa	1561.7 ± 1.7
28230 kPa	1561.8 ± 1.7
28264 kPa	1561.8 ± 1.7
28306 kPa	1562.1 ± 1.7
28335 kPa	1562.1 ± 1.7
28371 kPa	1562 ± 1.7
28399 kPa	1562.2 ± 1.7
28437 kPa	1562.3 ± 1.7
28909 kPa	1563.6 ± 1.7
28942 kPa	1563.9 ± 1.7
28978 kPa	1564 ± 1.7
29016 kPa	1564.1 ± 1.7
29044 kPa	1564.1 ± 1.7
29121 kPa	1564.3 ± 1.7
29155 kPa	1564.3 ± 1.7
29185 kPa	1564.4 ± 1.7
29223 kPa	1564.5 ± 1.7
29257 kPa	1564.7 ± 1.7
29291 kPa	1564.7 ± 1.7
29319 kPa	1564.9 ± 1.7
29391 kPa	1565 ± 1.7
29500 kPa	1565.3 ± 1.7
29534 kPa	1565.4 ± 1.7
30122 kPa	1567.2 ± 1.8
